The target in one test is T1, NK1 receptor (Cavia porcellus, UniProt P30547).
T1 construct: as evaluated in guinea pig lungs (Keystone Biologicals, Cleveland, Ohio); tissue Keystone Biologicals, Cleveland, Ohio; host or cells: guinea pig lung membranes
Description: Antagonism of iodinated tachykinin (substance P) binding to NK1 receptors in guinea pig lungs. The settings on record: read-out: NK1 Receptor Binding Affinity, IC50. As for the experimental part:
Antagonism of iodinated tachykinin binding to NK1 receptors by putative antagonists
One skilled in the art can measure the NK1 receptor affinity of proposed tachykinin antagonists as evaluated in guinea pig lungs (Keystone Biologicals, Cleveland, Ohio). Tissues or cells are homogenized with a Polytron in 15 volumes of 50 mM Tris-HCl buffer (pH 7.4, […]) and centrifuged. The pellet is resuspended in Tris-HCl buffer and centrifuged; the pellet is washed twice by resuspension. The final pellet is resuspended at a concentration of 40 mg/ml incubation buffer and remains at room temperature for at least 15 min prior to use. […] Incubations are performed at room temperature for 90 min; binding is terminated by addition of 50 mM Tris-HCl buffer (pH 7.4, […]) and filtration under vacuum through GF/B filters presoaked with 0.1% polyethyleneimine. Filter bound radioactivity is quantitated in a gamma counter. […] IC50 values (concentration required to inhibit 50% of receptor binding) are generated for each of the test compounds by nonlinear regression using an iterative curve fitting program (GraphPAD Inplot, San Diego, Calif.).

Another test deals with T2, H1 receptor (Cavia porcellus, UniProt P31389).
T2 construct: A piece of ileum, about 20 cm in length, is removed and cut into 2 cm pieces; from tissue; host or cells: ileum of male Hartley guinea pigs
T2 sequence (P31389 whole entry): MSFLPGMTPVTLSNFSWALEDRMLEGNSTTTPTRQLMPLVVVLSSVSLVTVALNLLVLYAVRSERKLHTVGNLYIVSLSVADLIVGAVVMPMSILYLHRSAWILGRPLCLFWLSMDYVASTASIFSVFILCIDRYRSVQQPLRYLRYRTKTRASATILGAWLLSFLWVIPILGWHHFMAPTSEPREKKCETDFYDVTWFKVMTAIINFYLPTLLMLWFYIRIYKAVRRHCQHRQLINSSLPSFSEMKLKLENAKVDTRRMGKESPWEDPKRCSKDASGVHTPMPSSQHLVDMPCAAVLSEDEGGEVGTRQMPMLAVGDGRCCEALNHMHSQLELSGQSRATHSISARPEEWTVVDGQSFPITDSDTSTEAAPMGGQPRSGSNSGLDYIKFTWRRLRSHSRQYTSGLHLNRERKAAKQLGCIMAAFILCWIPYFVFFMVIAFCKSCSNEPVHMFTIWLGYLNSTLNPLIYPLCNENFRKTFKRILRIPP
Description: Histamine (H1) antagonism in guinea pig ileum. Conditions: read-out: H1 Receptor Antagonism, pA2, in vitro (converted). The class given is cell-based. The method, then:
Male Hartley guinea pigs, weighing 200-450 grams, are sacrificed by CO2 asphyxiation. A piece of ileum, about 20 cm in length, is removed and cut into 2 cm pieces. Each ileum piece is placed in an organ bath at 37° C. containing Tyrode's solution and is constantly aerated with 95% O2 /5%CO2. Tyrode's solution has the composition: NaCl 136.9 mM, KCl […], CaCl2 1.8 mM, NaH2 PO4 0.42 mM, NaHCO3 11.9 mM, and dextrose 5.55 mM. Contractions are measured with an isometric transducer (Grass FTO3C), and are recorded on a polygraph recorder and/or a computer. The ileum strips are loaded with 1.0 grams of tension and allowed to equilibrate for a minimum of 30 minutes before starting the experiments.
The potency of the antagonism is determined by the magnitude of the shift and is expressed as a pA2 value which is the negative logarithm of the molar concentration of antagonist which produces a two-fold shift of the dose response curve to the right. The pA2 value is calculated by using Schild analysis. O. Arunlakshana and H. O. Schild, Br. J. Pharmacol Chemother. 14, 48-58 (1958).
Table 1 presents pA2 values by the method of Example 93 which indicate potency of H1 receptor antagonism and IC50 values by the method of Example 95 which indicates NK1 receptor binding affinity for representative compounds of the present invention.

Structures are written as SMILES. Like-named read-outs stand apart in the source and are kept apart here.

T1 sequence (P30547 whole entry): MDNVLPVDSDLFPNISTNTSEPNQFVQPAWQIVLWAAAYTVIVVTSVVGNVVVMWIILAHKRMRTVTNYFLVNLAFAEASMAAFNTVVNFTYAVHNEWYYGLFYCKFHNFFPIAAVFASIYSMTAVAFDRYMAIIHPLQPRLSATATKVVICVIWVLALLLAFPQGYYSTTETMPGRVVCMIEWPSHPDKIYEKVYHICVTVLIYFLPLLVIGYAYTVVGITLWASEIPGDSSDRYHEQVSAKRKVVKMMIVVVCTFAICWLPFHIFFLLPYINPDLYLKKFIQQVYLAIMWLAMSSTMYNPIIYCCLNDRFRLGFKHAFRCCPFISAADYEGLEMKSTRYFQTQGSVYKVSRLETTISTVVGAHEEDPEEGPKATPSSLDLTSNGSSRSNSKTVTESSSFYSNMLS

Turning to `CCOc1cc(C(=O)N2CCC(CCN3CCC(C(=O)c4nc5ccccc5n4Cc4ccc(F)cc4)CC3)(c3ccc(OC)c(OC)c3)C2)cc(OCC)c1OCC` (centres unmarked) [Example 28, 1-(3,4,5-Triethoxy-benzoyl)-3-[2-[4-[1-(4-fluoro-benzyl)-1 H-benzoimidazole-2-carbonyl]-piperidin-1-yl]-ethyl]-3-(3,4-dimethoxy-phenyl)-pyrrolidine], the half-maximal inhibitory concentration (IC50) on NK1 receptor (guinea pig lungs, 0.1 nM 125I-Bolton Hunter Lys-3 labeled substance P, room temperature 90 min, pH 7.4) worked out at 1240 nM. The Kb on H1 receptor was 20.4 nM.
`COc1cc(C(=O)N2CCC(CCN3CCC(C(=O)c4nc5ccccc5n4CCN4CCOCC4)CC3)(c3ccc(Cl)c(Cl)c3)C2)cc(OC)c1OC` (centres unmarked) [Example 32, 1-(3,4,5-Trimethoxy-benzoyl)-3-[2-[4-[1-(2-(morpholin-4-yl)-ethyl)-1 H-benzoimidazole-2-carbonyl]-piperidin-1-yl]-ethyl]-3-(3,4-dichlororphenyl)-pyrrolidine]: the IC50 on NK1 receptor was 15 nM. The Kb at H1 receptor is 513 nM.
`COc1cc(C(=O)N2CCC(CCN3CCC(C(=O)c4nc5ccccc5n4Cc4ccccn4)CC3)(c3ccc(Cl)c(Cl)c3)C2)cc(OC)c1OC` (centres unmarked) [Example 33, 1-(3,4,5-Trimethoxy-benzoyl)-3-[2-[4-[1-(pyrid-2-ylmethyl)-1 H-benzoimidazole-2-carbonyl]-piperidin-1-yl]-ethyl]-3-(3,4-dichloro-phenyl)-pyrrolidine]: on NK1 receptor, the half-maximal inhibitory concentration (IC50) was 38 nM. Besides, the Kb on H1 receptor is 41.7 nM.
As to `COc1cc(C(=O)N2CCC(CCN3CCC(C(=O)c4nc5ccccc5n4Cc4ccccn4)CC3)(c3ccccc3)C2)cc(OC)c1OC` (centres unmarked) [Example 37, 1-(3,4,5-Trimethoxy-benzoyl)-3-[2-[4-[1-(pyrid-2-ylmethyl)-1 H-benzoimidazole-2-carbonyl]-piperidin-1-yl]-ethyl]-3-phenyl-pyrrolidine], the IC50 at NK1 receptor was 17 nM. On H1 receptor, the Kb was 25.1 nM.
Take `COc1cc(C(=O)N2CCC(CCN3CCC(C(=O)c4nc5ccccc5n4Cc4ccc(C(=O)O)cc4)CC3)(c3ccccc3)C2)cc(OC)c1OC` (centres unmarked) [Example 39, 1-(3,4,5-Trimethoxy-benzoyl)-3-[2-[4-[1-(4-carboxy-benzyl)-1 H-benzoimidazole-2-carbonyl]-piperidin-1-yl]-ethyl]-3-phenyl-pyrrolidine]: the IC50 at NK1 receptor turned out to be 29 nM. For the same compound, on H1 receptor, the Kb was 891 nM.
The matching figures for `CCOCCn1c(C(=O)C2CCN(CCC3(c4ccccc4)CCN(C(=O)c4cc(OC)c(OC)c(OC)c4)C3)CC2)nc2ccccc21` (centres unmarked) [Example 40, 1-(3,4,5-Trimethoxy-benzoyl)-3-[2-[4-[1-(2-ethoxy-ethyl)-1 H-benzoimidazole-2-carbonyl]-piperidin-1-yl]-ethyl]-3-phenyl-pyrrolidine]: 24 nM and 41.7 nM.
The corresponding values for `COc1ccc(C2(CCN3CCC(C(=O)c4nc5ccccc5n4Cc4ccc(C(=O)O)cc4)CC3)CCN(C(=O)c3cc(OC)c(OC)c(OC)c3)C2)cc1OC` (centres unmarked) [Example 43] are 48 nM and 6760 nM.
On to `COc1cc(C(=O)N2CCC(CCN3CCC(C(=O)c4nc5ccccc5n4Cc4ccco4)CC3)(c3ccccc3)C2)cc(OC)c1OC` (centres unmarked) [Example 44, 1-(3,4,5-Trimethoxy-benzoyl)-3-[2-[4-[1-(fur-2-ylmethyl)-1 H-benzoimidazole-2-carbonyl]-piperidin-1-yl]-ethyl]-3-phenyl-pyrrolidine], for which, on NK1 receptor, the IC50 was determined as 13 nM. The Kb at H1 receptor is 63.1 nM.
The matching figures for `COc1cc(C(=O)N2CCC(CCN3CCC(C(=O)c4nc5ccccc5n4CCOCc4ccco4)CC3)(c3ccccc3)C2)cc(OC)c1OC` (centres unmarked) [Example 45, 1-(3,4,5-Trimethoxy-benzoyl)-3-[2-[4-[1-(2-fur-2-ylmethoxy-ethyl)-1 H-benzoimidazole-2-carbonyl]-piperidin-1-yl]-ethyl]-3-phenyl-pyrrolidine]: 9 nM and 35.5 nM.
The corresponding values for `COc1cc(CN2CCC(CCN3CCC(O)(c4nc5ccccc5n4Cc4ccc(F)cc4)CC3)(Cc3ccccc3)C2=O)cc(OC)c1OC` (centres unmarked) [Example 53, 1-(3,4,5-Trimethoxy-benzyl)-3-[2-[4-[1-(4-fluoro-benzyl)-1H-benzoimidazol-2-yl]-4-hydroxy-piperidin-1-yl]-ethyl]-3-(phenylmethyl)-2-oxo-pyrrolidine] are 191 nM and 204 nM.
The matching figures for `COc1cc(CN2CCC(CCN3CCC(O)(c4nc5ccccc5n4Cc4ccc(F)cc4)CC3)(Cc3ccc(Cl)c(Cl)c3)C2=O)cc(OC)c1OC` (centres unmarked) [Example 54, 1-(3,4,5-Trimethoxy-benzvl)-3-[2-[4-[1-(4-fluoro-benzyl)-1H-benzoimidazol-2-yl]-4-hydroxy-piperidin-1-yl]-ethyl]-3-(3,4-dichloro-phenylmethyl)-2-oxo-pyrrolidine]: 269 nM and 479 nM.
For `COc1ccc(CC2(CCN3CCC(O)(c4nc5ccccc5n4Cc4ccc(F)cc4)CC3)CCN(Cc3cc(OC)c(OC)c(OC)c3)C2=O)cc1OC` (centres unmarked) [Example 55, 1-(3,4,5-Trimethoxy-benzyl)-3-[2-[4-[1-(4-fluoro-benzyl)-1H-benzoimidazol-2-yl]-4-hydroxy-piperidin-1-yl]-ethyl]-3-(3,4-dimethoxy-phenylmethyl)-2-oxo-pyrrolidine], the IC50 at NK1 receptor worked out at 385 nM. For the same compound, at H1 receptor, the Kb is 912 nM.
As to `COc1cc(CN2CCC(CCN3CCC(O)(c4nc5ccccc5n4Cc4ccc(F)cc4)CC3)(Cc3ccc(F)cc3)C2=O)cc(OC)c1OC` (centres unmarked) [Example 57, 1-(3,4,5-Trimethoxy-benzyl)-3-[2-[4-[1-(4-fluoro-benzyl)-1H-benzoimidazol-2-yl]-4-hydroxy-piperidin-1-yl]-ethyl]-3-(4-fluoro-phenylmethyl)-2-oxo-pyrrolidine], at NK1 receptor, the IC50 stood at 114 nM. Further, the Kb at H1 receptor is 155 nM.
The corresponding values for `COc1cc(CN2CCC(CCN3CCC(O)(c4nc5ccccc5n4Cc4ccc(F)cc4)CC3)(Cc3ccc(F)cc3F)C2=O)cc(OC)c1OC` (centres unmarked) [Example 58, 1-(3,4,5-Trimethoxy-benzyl)-3-[2-[4-[1-(4-fluoro-benzyl)-1H-benzoimidazol-2-yl]-4-hydroxy-piperidin-1-yl]-ethyl]-3-(2,4-difluoro-phenylmethyl)-2-oxo-pyrrolidine] are 345 nM and 151 nM.
Take `CC(C)Oc1cccc(CC(=O)N2CCCC(CCN3CCC(C(=O)c4nc5ccccc5n4Cc4ccc(F)cc4)CC3)(c3ccc(Cl)c(Cl)c3)C2)c1` (centres unmarked) [Example 63, 1-(3-Isopropoxy-phenyl-acetyl)-3-[2-[4-[1-(4-fluoro-benzyl)-1H-benzoimidazole-2-carbonyl]-piperidin-1-yl]-ethyl]-3-(3,4-dichloro-phenyl)-piperidine]: the IC50 on NK1 receptor amounted to 279 nM. On H1 receptor, the Kb was 79.4 nM.
The corresponding values for `CCOCCn1c(C(=O)C2CCN(CCC3(c4ccc(Cl)c(Cl)c4)CCN(C(=O)c4cc(OC)c(OC)c(OC)c4)C3)CC2)nc2ccccc21` (centres unmarked) [Example 83, 1-(3,4,5-Trimethoxy-benzoyl)-3-[2-[4-[1-(2-ethoxy-ethyl)-1H-benzoimidazole-2-carbonyl]-piperidin-1-yl]-ethyl]-3-(3,4-dichloro-phenyl)-pyrrolidine] are 31 nM and 105 nM.

One may read the IC50 as the point on the concentration scale where inhibition reaches its midpoint.

The values are drawn from US6329392A, “Substituted piperidines useful for the treatment of allergic diseases” (Aventis Pharmaceuticals, Inc., priority 1998, dated 2001).
